Laboratory results from PMC11860020, “Rational Design and Synthesis of a Novel Series of Thiosemicarbazone-Containing Quinazoline Derivatives as Potential VEGFR2 Inhibitors” (Pharmaceutics, 2025).
Read-outs that look alike come from different tables or passages of the source.

Tests used:
A375 cells = assay: Alamar Blue cytotoxicity on A375 cells; type: cell-based, human; conditions: for IC50: Homo sapiens, read-out: IC50 A375; for Selectivity Index SIb: SIb = IC50 HaCaT/IC50 A375
Method: (§1) To the growth media of all the cell lines, 1% penicillin/streptomycin and 10% FBS were added. The cell lines were cultured in standardized conditions (37 °C and 5% CO2) with the initiation of the experimental protocol once an 80–90% confluency was reached.
(§2) The spectrophotometric quantification (λemission = 590/35, λexcitation = 530/25) of resorufin by the metabolic-dependent conversion of the resazurin by the viable cells was achieved using the microplate reader Synergy 2 Multi-Mode. The cells were seeded in 100 µL of growth media in 96-well plates at the specified density (Ea.Hy296—5 × 10^3 cells/well, HaCaT—8 × 10^3 cells /well, and A375—7 × 10^3 cells /well) and were left overnight to attach. […] After 48 h of cultivation, the growth media was removed, and the AB assay was performed for the quantification of the viable cells post-exposure to the selected compounds. Three biological replicates were performed for each biological experiment with six technical replicates, using 0.2% DMSO as the negative control (NC) for data normalization (100% viability). The IC50 values were calculated based on the dose–cellular viability curve ratio obtained by fitting the experimental data with a 4-parameter logistic curve (SigmaPlot 11).

Ea.Hy926 cells [1] = assay: Alamar Blue cytotoxicity on Ea.Hy926 cells; conditions: for IC50: read-out: IC50 EA.hy926, 48 h exposure, Alamar Blue; for Selectivity Index SIa: SIa = IC50 HaCaT/IC50 EA.hy296
Method: as §1, §2

Human VEGFR-2 (KDR) = target: T1, Human VEGFR-2 (KDR) (Homo sapiens, UniProt P35968); assay: In vitro VEGFR2 kinase inhibition assay; type: biochemical; conditions: for inhibition at 0.5 µM: read-out: VEGFR2 Kinase Inhibitory Activity % of Inhibition (500 nM); for IC50: isolated kinase domain, 45 min at 30 °C
T1 construct: purchased BPS Bioscience 40325
Method: The experimental assay was conducted according to the manufacturer’s instructions. […] The incubation time was set for 45 min at 30 °C. Inhibitory potential towards the kinase domain was quantified by luminescence detection, after the addition of the Kinase-Glo™ MAX reagent (Promega, Madison, WI, USA, catalog #v6071). After further incubation for an additional 15 min, the luminescence was recorded using a microplate reader Synergy 2 Multi-Mode.

HaCaT cells = assay: Alamar Blue cytotoxicity on HaCaT cells; type: cell-based; conditions: Homo sapiens, read-out: IC50 HaCaT
Method: as §1, §2

[2] = test system: chick chorioallantoic egg membrane (CAM); assay: Chorioallantoic egg membrane (CAM) assay; type: in vivo; conditions: 1 µM, 5 µM and 10 µM, 5-day protocol
Method: Eggs without deformities and weighing between 50 and 60 g were selected. The eggs were cleaned with 70% alcohol and incubated for 14 days in standard conditions (37.5 °C, humidity 65%). On the 4th day of incubation, approximately 10–12 mL of egg white (albumen) was extracted from the top of each egg using a medical syringe with a needle for the detachment of the egg membrane. On the 5th day, the eggs were checked for fertility using a light source, and a window large enough to reveal the vascular plexus was cut out with forceps. The window was then sealed with medical tape to maintain favorable conditions for embryonic development. Optimal ventilation conditions, temperature, and humidity were ensured throughout incubation to facilitate proper embryo growth. […] For this purpose, a transparent silicone ring was applied to the vascular plexus of the CAM using a tweezer. In this ring, 10 μL of each test sample was applied for 4 days. […] Pictures were taken daily (days 1–5 of exposure) to observe the effects of the samples on the angiogenic process, and the changes observed were noted. For microscopic analysis, a Zeiss SteREO Discovery.V8 stereomicroscope was used, coupled with a Zeiss Axiocam 105 digital camera, both connected to a computer. The images presented in this study were captured using the ZEN core 3.8 software. The scale bar from the images represents a measurement of 500 μm.

Ea.Hy926 cells [3] = assay: Wound healing (scratch) assay; type: cell-based, human; conditions: 12 h
Method: Confluent Ea.Hy926 monolayers were formed by seeding the cells for 24 h in a 12-well plate incubated in a starvation medium. After the confluency was reached, the medium was removed and a scratch was performed using the sterile tip of a 100 µL pipette. Detached cells were removed by washing the cellular monolayers twice with DPBS, and then the cells were photographed individually (phase-contrast microscopy, 10x objective) to assess the wound area at the moment of exposure (T0). […] For each experiment, an image was captured 12 h post-exposure (T12), and the rate of Ea.Hy926 cell migration was quantitatively evaluated by the wound healing percentage (%) calculated by the formula (AT0 − AT12)/ AT0 × 100 [35]. The scratch areas at T0 (AT0) and T12 (AT12), respectively, were determined with the IKOSA Prisma Application Wound Healing (Scratch) assay (v2.2.0) and are expressed as square pixels (Px^2).

[4] = A-375, 48 h exposure, Alamar Blue

T1 sequence (P35968 805-1356): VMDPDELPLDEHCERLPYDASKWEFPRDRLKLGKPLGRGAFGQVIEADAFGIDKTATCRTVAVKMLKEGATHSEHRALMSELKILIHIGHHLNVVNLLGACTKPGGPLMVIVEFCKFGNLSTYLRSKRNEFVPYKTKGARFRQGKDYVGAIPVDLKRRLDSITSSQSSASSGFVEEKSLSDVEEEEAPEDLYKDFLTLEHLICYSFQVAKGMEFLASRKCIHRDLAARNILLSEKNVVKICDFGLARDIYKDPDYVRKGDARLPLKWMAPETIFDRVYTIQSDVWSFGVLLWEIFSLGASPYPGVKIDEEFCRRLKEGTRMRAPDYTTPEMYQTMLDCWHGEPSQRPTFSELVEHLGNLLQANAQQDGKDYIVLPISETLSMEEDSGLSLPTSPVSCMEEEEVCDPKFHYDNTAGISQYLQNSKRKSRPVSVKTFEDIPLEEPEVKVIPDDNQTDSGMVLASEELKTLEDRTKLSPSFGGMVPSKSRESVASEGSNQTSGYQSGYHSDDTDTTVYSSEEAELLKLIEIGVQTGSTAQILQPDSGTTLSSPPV

COc1cccc(NC(=S)NN=Cc2ccc(Oc3ncnc4cc(OC)c(OC)cc34)cc2)c1 [TSC8, N-(3-methoxyphenyl)-2-(4-((6,7-dimethoxyquinazolin-4-yl)oxy)benzylidene)hydrazine-1-carbothioamide]
IC50 (A375 cells; [4]): > 100 µM
IC50 (Ea.Hy926 cells [1]): > 100 µM
inhibition at 0.5 µM (Human VEGFR-2 (KDR)): 0%
IC50 (HaCaT cells; 48 h exposure, Alamar Blue): > 100 µM

COc1cc2ncnc(Oc3ccc(/C=N/NC(=S)Nc4cccc(C(F)(F)F)c4)cc3)c2cc1OC [TSC2, N-(3-(trifluoromethyl)-phenyl)-2-(4-((6,7-dimethoxyquinazolin-4-yl)oxy)benzylidene)-hyrazine-1-carbothioamide]
IC50 (A375 cells; [4]): > 100 µM
IC50 (Ea.Hy926 cells [1]): > 100 µM
IC50 (Human VEGFR-2 (KDR)): 0.341 µM
inhibition at 0.5 µM (Human VEGFR-2 (KDR)): 59.5%
IC50 (HaCaT cells; 48 h exposure, Alamar Blue): > 100 µM

C=CCNC(=S)NN=Cc1ccc(Oc2ncnc3cc(OC)c(OC)cc23)cc1 [TSC1, N-allyl-2-(4-((6,7-dimethoxyquinazolin-4-yl)oxy)benzylidene)hydrazine-1-carbothioamide]
IC50 (A375 cells; [4]): > 100 µM
Selectivity Index SIa (Ea.Hy926 cells [1]): 2.00
IC50 (Human VEGFR-2 (KDR)): 0.389 µM
inhibition at 0.5 µM (Human VEGFR-2 (KDR)): 52.7%
IC50 (HaCaT cells; 48 h exposure, Alamar Blue): ~100 µM

COc1cc2ncnc(Oc3ccc(C=NNC(=S)NC(C)C)cc3)c2cc1OC [TSC9, N-isopropyl-2-(4-((6,7-dimethoxyquinazolin-4-yl)oxy)benzylidene)hydrazine-1-carbothioamide]
IC50 (A375 cells; [4]): > 100 µM
Selectivity Index SIa (Ea.Hy926 cells [1]): 6.90
IC50 (Ea.Hy926 cells [1]): 12.6 µM
IC50 (Human VEGFR-2 (KDR)): 0.379 µM
inhibition at 0.5 µM (Human VEGFR-2 (KDR)): 70.5%
IC50 (HaCaT cells; 48 h exposure, Alamar Blue): 86.8 µM
anti-angiogenic effect in CAM [2]: anti-angiogenic properties were also demonstrated across all three tested concentrations
reduction in the wound closure area (Ea.Hy926 cells [3]; highest evaluated concentration (TSC9 12.5 µM, TSC10 7.5 µM)): 25.63%

COc1cc2ncnc(Oc3ccc(C=NNC(=S)Nc4ccc(F)c(F)c4)cc3)c2cc1OC [TSC7, N-(3,4-difluorophenyl)-2-(4-((6,7-dimethoxyquinazolin-4-yl)oxy)benzylidene)hydrazine-1-carbothioamide]
IC50 (A375 cells; [4]): > 100 µM
Selectivity Index SIa (Ea.Hy926 cells [1]): 1.25
IC50 (Ea.Hy926 cells [1]): 43.2 µM
inhibition at 0.5 µM (Human VEGFR-2 (KDR)): 21.1%
IC50 (HaCaT cells; 48 h exposure, Alamar Blue): 53.8 µM

CNC(=O)c1cc(Oc2ccc(NC(=O)Nc3ccc(Cl)c(C(F)(F)F)c3)cc2)ccn1 [Sorafenib, sorafenib, reference compound]
IC50 (A375 cells; A-375, 48 h): 5.26 µM
IC50 (Ea.Hy926 cells [1]): 10.2 µM
IC50 (HaCaT cells; 48 h): 12.9 µM
anti-angiogenic effect in CAM [2]: potent anti-angiogenic effect was observed across all three tested concentrations
inhibition of the mobility of Ea.Hy296 cells (Ea.Hy926 cells [3]; 5 µM): almost total inhibition

COc1cc2ncnc(Oc3ccc(C=NNC(=S)Nc4ccc(F)cc4)cc3)c2cc1OC [TSC3, N-(4-fluorophenyl)-2-(4-((6,7-dimethoxyquinazolin-4-yl)oxy)benzylidene)hydrazine-1-carbothioamide]
IC50 (A375 cells; [4]): > 100 µM
Selectivity Index SIa (Ea.Hy926 cells [1]): 1.08
IC50 (Ea.Hy926 cells [1]): 26.5 µM
IC50 (Human VEGFR-2 (KDR)): 0.239 µM
inhibition at 0.5 µM (Human VEGFR-2 (KDR)): 62.1%
IC50 (HaCaT cells; 48 h exposure, Alamar Blue): 28.6 µM

COc1cc2ncnc(Oc3ccc(/C=N/NC(=S)Nc4cccc(Cl)c4Cl)cc3)c2cc1OC [TSC10, (E)-N-(2,3-dichlorophenyl)-2-(4-((6,7-dimethoxyquinazolin-4-yl)oxy)benzylidene)hydrazine-1-carbothioamide]
IC50 (A375 cells; [4]): 28.6 µM
Selectivity Index SIb (A375 cells): 1.83
Selectivity Index SIa (Ea.Hy926 cells [1]): 4.09
IC50 (Ea.Hy926 cells [1]): 12.8 µM
IC50 (Human VEGFR-2 (KDR)): 0.119 µM
inhibition at 0.5 µM (Human VEGFR-2 (KDR)): 89.1%
IC50 (HaCaT cells; 48 h exposure, Alamar Blue): 52.4 µM
anti-angiogenic effect in CAM [2]: potent anti-angiogenic properties were observed

COc1cc2ncnc(Oc3ccc(C=NNC(=S)Nc4ccccc4)cc3)c2cc1OC [TSC5, N-phenyl-2-(4-((6,7-dimethoxyquinazolin-4-yl)oxy)benzylidene)hydrazine-1-carbothioamide]
IC50 (A375 cells; [4]): 17.4 µM
Selectivity Index SIb (A375 cells): 0.95
cytotoxic potential relative to sorafenib (Ea.Hy926 cells [1]; Ea.Hy296 cells, 48 h): 1.35 fold
Selectivity Index SIa (Ea.Hy926 cells [1]): 2.20
IC50 (Ea.Hy926 cells [1]): 7.47 µM
IC50 (Human VEGFR-2 (KDR)): 0.378 µM
inhibition at 0.5 µM (Human VEGFR-2 (KDR)): 71%
IC50 (HaCaT cells; 48 h exposure, Alamar Blue): 16.4 µM
anti-angiogenic effect in CAM [2]: pronounced decrease in CAM vascularization
motility inhibition potential (Ea.Hy926 cells [3]; 1.25-5 µM, versus 0.2% DMSO): 11.19–12.82%

COc1cc2ncnc(Oc3ccc(C=NNC(=S)Nc4ccc(Cl)c(C(F)(F)F)c4)cc3)c2cc1OC [TSC6, N-(4-chloro-3-(trifluoromethyl)phenyl)-2-(4-((6,7-dimethoxyquinazolin-4-yl)oxy)benzylidene)hydrazine-1-carbothioamide]
IC50 (A375 cells; [4]): 61 µM
Selectivity Index SIb (A375 cells): 0.38
Selectivity Index SIa (Ea.Hy926 cells [1]): 1.40
IC50 (Ea.Hy926 cells [1]): 16.5 µM
inhibition at 0.5 µM (Human VEGFR-2 (KDR)): 0%
IC50 (HaCaT cells; 48 h exposure, Alamar Blue): 23 µM

COc1cc2ncnc(Oc3ccc(C=NNC(=S)Nc4ccc(Cl)cc4)cc3)c2cc1OC [TSC4, N-(4-chlorophenyl)-2-(4-((6,7-dimethoxyquinazolin-4-yl)oxy)benzylidene)hydrazine-1-carbothioamide]
IC50 (A375 cells; [4]): 14.8 µM
Selectivity Index SIb (A375 cells): 1.08
Selectivity Index SIa (Ea.Hy926 cells [1]): 1.10
IC50 (Ea.Hy926 cells [1]): 14.5 µM
inhibition at 0.5 µM (Human VEGFR-2 (KDR)): 40.5%
IC50 (HaCaT cells; 48 h exposure, Alamar Blue): 15.9 µM
